Experiments:
[1] = Cell viability of tau-BiFC cells (number of nuclei); assay type: cell-based, human; details: human, HEK293 Tau-BiFC cells, 48 h of treatment
Method: (§1) HEK293 Tau-BiFC cells were maintained in Dulbecco’s modified Eagle medium (DMEM) supplemented with 10% fetal bovine serum (FBS), 100 units/mL penicillin, 100 µg/mL streptomycin and 100 µg/mL Geneticin (G418) in a humidified atmosphere containing 5% CO2 at 37 °C. Tau-BiFC cells were activated by treatment with FK (30 μM) or tauK18^P301L (5 μg/mL).
(§2) For screening of FDA-approved & Passed Phase I Drug Library, tau-BiFC cells were plated on µ-clear 384-well plates. The next day, the cells were cotreated with forskolin and 1,018 library compounds at a concentration of 10 µM. MB and LMTM (3 µM) were used as positive controls. After 46 h, nuclei were counterstained with Hoechst (Invitrogen). BiFC (λex = 460–490 nm and λem = 500–550 nm) and Hoechst (λex = 355–385 nm and λem = 430–500 nm) fluorescence images were acquired automatically by using Operetta® (PerkinElmer). BiFC fluorescence intensity and the number of nuclei were quantified using Harmony 3.1 software (PerkinElmer). Integrated tau-BiFC intensity represents the area of selected cell X mean fluorescence intensity. The means and standard deviations (S.D.) of BiFC fluorescence intensities and the number of nuclei were plotted using GraphPad Prism.

tauK18 = biological target: T1, tauK18 (Homo sapiens, UniProt P10636); test: Transmission electron microscopy of tau filaments and oligomers; assay type: biochemical; details: tauK18 preaggregates; DMSO control 13.7 ± 5.2 nm
T1 construct: under in vitro conditions using a purified tauK18 fragment; 6xHis; made in house; host or cells: E. coli BL21 (DE3)
Method: Samples were placed onto carbon-coated copper electron microscopy grids and then negatively stained with 2% (w/v) aqueous uranyl acetate for 1 min. To image the tau filaments (Fig. 3d), the grids were observed using a JEM-1011 transmission electron microscope (JEOL) at an acceleration voltage of 80 kV. To image the tau filaments and oligomers (Figs. 3f and 4e), the grids were observed using a Tecni G2 F20 transmission electron microscope (FEI) at an acceleration voltage of 120 kV. Eight to twelve random images from each experimental condition were captured by the operator as a blind observer.

tau cysteines = test: Covalent binding to tau (14C autoradiography, MALDI-TOF of R1-R4 peptides); details: repeat domain:levosimendan 1:10, RT
Method: TauK18 (1 mg/mL, 72 μM) was incubated with ^14C-levosimendan (720 μM) in PBS containing 5% DMSO at RT for 2 h. Then, the mixture was separated on a 15% SDS–PAGE gel under nonreducing conditions and stained with Coomassie blue. For autoradiography, the SDS–PAGE gel was transferred to a PVDF membrane and scanned by Typhoon FLA 7000 IP (GE Healthcare).
Each repeat domain (R1, R2, R3, R4, R2-C291S or R3-C322S, 150 μM) was incubated with levosimendan (molar ratio 1:10 of a tau repeat domain: levosimendan) at RT for 37 h. The samples were mixed with matrix solution (10 mg mL^−1 sinapinic acid in 0.1% (v/v) trifluoroacetic acid/CAN) at a ratio of 1:1. The mixtures were directly spotted onto the MALDI target and dried. Mass spectra were acquired in reflection/linear positive ion mode in the m/z range of 2000–100,000 using an Ultraflex III TOF/TOF mass spectrometer controlled by Flex Control 3.0 (Bruker Daltonics). The default operating conditions were as follows: ion source 1, 25.0 kV; ion source 2, 23.0 kV; lens voltage, 6.0 kV; laser repetition rate = 100 Hz. All spectra were generated automatically in the instrument software and based on averaging 1000 shots from 10 nonoverlapping positions (100 shots/position).

[2] = 1H NMR of reaction with N-acetyl-L-cysteine methyl ester; details: room temperature
Method: NMR analysis was performed at 25 °C and recorded in δ units relative to deuterated solvent as an internal reference using a 400 MHz NMR instrument (Bruker). Deuterated phosphate-buffered saline (d-PBS) was prepared at a concentration of 50 mM (D2O + H2O, 1:1, v/v). Levosimendan (50 mg, […], 1 equivalent) reacted with N-acetyl-L-cysteine methyl ester (38 mg, […], 1.2 equivalent) in 10 mL of d-PBS/DMSO-d6 (1:1, v/v) at room temperature, and the reaction was checked at various time points. For the reversibility study, the reaction mixture was diluted ten times with d-PBS/DMSO-d6 (1:1, v/v) and monitored at room temperature.

[3] = design: method as in PMID 15489122; details: in humans; cited from earlier work
HEK293 Tau-BiFC cells = test: Cell viability of tau-BiFC cells (number of nuclei); assay type: cell-based, human; details: 48 h of treatment
Method: as §1, §2

[4] = Tau-BiFC^ON by forskolin (30 μM)
[5] = Tau-BiFC^ON by tauK18^P301L (5 μg/mL)

T1 sequence (P10636 561-685 limits assumed): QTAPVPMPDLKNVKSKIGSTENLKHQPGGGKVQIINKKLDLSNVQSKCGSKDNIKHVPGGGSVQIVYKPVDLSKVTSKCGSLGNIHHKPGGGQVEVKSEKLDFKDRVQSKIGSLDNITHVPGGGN

SMILES | GI50 at 48 h [1, 4] | GI50 at 48 h [1, 5] | Diameter (width) of tau particles (TEM) (tauK18) | Covalent attachment to tau repeat domains (MALDI-mass spectrometry) (tau cysteines) | Time to almost complete restoration of levosimendan upon ten-fold dilution ([2]; reaction mixture diluted ten times) | Time to complete formation of the levosimendan-cysteine conjugate ([2]; with N-acetyl-L-cysteine methyl ester) | Portion of levosimendan metabolized to OR-1855 and OR-1896 [3] | GI50 (HEK293 Tau-BiFC cells; [4]) | GI50 (HEK293 Tau-BiFC cells; [5])
C[C@@H]1CC(=O)NN=C1c1ccc(NN=C(C#N)C#N)cc1 [Levosimendan] | 124 ± 0.3 µM | 101.3 ± 0.4 µM | 8.8 ± 2.0 nm | covalently attached to the R2 and R3 domains | 5 days | ≤ 2 h | 5% | – | –
CN(C)c1ccc2c(c1)Sc1cc(N(C)C)ccc1N2.CS(=O)(=O)O.CS(=O)(=O)O [LMTM, leucomethylene blue mesylate] | – | – | – | – | – | – | – | 6.4 ± 0.3 µM | 6.6 ± 0.3 µM
